Data on four molecules can be found in patent US20110311651A1, “CA[…] THE TREATMENT OF OCULAR CANCER” (priority 2008, published 2011).

Molecules are shown by their SMILES. “Also recorded” adds a separate entry of the source.

The test system of series [1] is Y79 cells. The experiment in a line: Cytotoxicity assay for dose response in 384-well plates (Alamar Blue), Y79. In kind it is cell-based, human. As to the method: (§1) Cytotoxicity assay for dose response in 384-well microtiter plates. Dose response studies were performed in 384-well microtiter plates (#3712, Corning Inc., Corning, N.Y.) according to the following protocol: cells were added in 45 μL medium to the screening plates using Flexdrop. After 72 h incubation was added 5 μL Alamar Blue using Flexdrop. The cells were then incubated for another 24 h, and the fluorescence intensity was read on LEADseeker™ Multimodality Imaging System as previously described. To calculate the IC50 for each compound toward each cell line, the dose response was assessed in duplicate and using 12 point doubling dilutions with 100 μM compound concentration as the upper limit. The dose response curve for each set of data was fitted separately, and the two IC50 values obtained were averaged.
Compared potency of the cardenolide ouabain with known agents in cell models of retinoblastoma. The potency of a representative of the cardenolide scaffold was compared to known effective agents against retinoblastoma. Namely, the dose response of the drug ouabain was tested with the human retinoblastoma cell lines Y79 and RB355, and its potency was compared to vincristine, etoposide, carboplatin, cisplatin, nutlin-3 and calcitriol. […] The activity of vincristine toward Y79 cells reached a plateau at 50% inhibition, which prevented the IC50 for this compound from being calculated.
For orientation: Resazurin is reduced to fluorescent resorufin, in cell work by metabolically active cells.

Series [2] deals with Y79 cells. The experiment in a line: Apoptosis assay, immunofluorescence detection of activated Caspase-3. In kind it is cell-based, human. Conditions: 0.5 μM, 72 h, 1% DMSO. As for the experimental part:
Apoptosis assay. Y79 cells seeded in culture medium in a 24-well plate were treated with either vincristine, etoposide, or ouabain at various concentrations in 1% DMSO (v/v) or with 1% DMSO (v/v) alone as a carrier control for 48 h or 72 h. After a wash in PBS, cells were fixed in solution in […] in PBS for 10 minutes. After a wash in PBS, cells for each condition were dried on a glass slide and washed once with water.
The immunofluorescence detection of cleaved Caspase-3 was performed at the Memorial Sloan-Kettering Cancer Center Molecular Cytology Core Facility using a Discovery XT processor (Ventana Medical Systems, Tucson, Ariz.). A rabbit polyclonal Cleaved Caspase 3 (Asp 175) antibody (#9661 L, Cell Signaling, Danvers, Mass.) was used at a concentration of 0.1 μg/ml. […] Automated fluorescence imaging of the green channel (activated Caspase-3) and blue channel (nuclei) was performed using an IN Cell Analyzer 1000 (GE Healthcare).
Compared effect of ouabain and clinical agents on apoptosis of Y79 cells. […] The drug concentrations used in this experiment were previously determined according to a pilot study where treated Y79 cells were live-stained with the dye Yo-Pro, which stains apoptic cells (Idziorek et al., J. Immunol. Methods 1995, 185, 249-258). […] Baseline Caspase-3 activation was evaluated with control Y79 cells treated with 1% DMSO (v/v) (FIG. 6A).

Series [3] relates to Y79 cells. The experiment in a line: Pilot study, live staining of treated cells with the dye Yo-Pro. In kind it is cell-based, human. The conditions noted are these: concentrations higher than 0.5 μM. As for the experimental part:
Compared effect of ouabain and clinical agents on apoptosis of Y79 cells. To determine whether the anti-proliferative effects of the drug ouabain was mediated by induction of apoptosis, immunostaining of activated Caspase-3 in Y79 cells treated with cardenolides or known agents for retinoblastoma for 72 h (green channel) was performed; treated cells were also stained with Hoechst to image the nuclei (blue channel) (FIG. 6). The drug concentrations used in this experiment were previously determined according to a pilot study where treated Y79 cells were live-stained with the dye Yo-Pro, which stains apoptic cells (Idziorek et al., J. Immunol. Methods 1995, 185, 249-258). Based on this study, 72 h was identified as the optimum incubation time and drug concentrations were selected that maximized the number of apoptotic cells (data not shown). Baseline Caspase-3 activation was evaluated with control Y79 cells treated with 1% DMSO (v/v) (FIG. 6A).

The nature of series [4]: Body weight and signs of toxicity in the xenograft study. In kind it is in vivo, mouse. The conditions noted are these: throughout the treatment period. As for the experimental part:
In vivo studies. Subcutaneous xenograft experiments were performed at the Memorial Sloan-Kettering Cancer Center Antitumor Assessment Core Facility. Y79LUC cells (10E6) embedded in matrigel (BD Biosciences, San Jose, Calif.) were injected subcutaneously in the right flank of 8-weeks old ICR/SCID male mice. Treatment started when the tumors reached approximately 250 mm^3. The mice were randomized into three groups and two mice per group were treated with either 10% DMSO (v/v) (control group), 1.5 mg/kg ouabain or 15 mg/kg ouabain. Treatment was performed by continuous subcutaneous infusion using osmotic minipumps (#1007D, Alzet, Cupertino, Calif.). Tumor size was measured externally two times a week with a caliper. Body weight of each mouse was monitored as well as other signs of toxicity throughout the treatment period. Bioluminescent imaging of the tumors was performed once a week and prior to sacrifice as follows: mice were anesthetized by isofluorane inhalation and injected with D-luciferin at 50 mg/Kg (Xenogen) intraperitoneally; photonic emission was measured with the In Vivo Imaging System (IVIS 200, Xenogen) with a collection time of 5 seconds.
Assessment of the in vivo efficacy of ouabain in a xenograft model of retinoblastoma. The therapeutic effect of the drug ouabain in a mouse xenograft model of retinoblastoma was also investigated. […]

The test system of a further series is RB355 cells. The experiment in a line: Cytotoxicity assay for dose response in 384-well plates (Alamar Blue), RB355. The series is classed as cell-based, human. As for the experimental part:
as §1
To explore the structure activity relationship (SAR) within this chemical class a collection of 35 cardenolides and derivatives was constituted. The dose response for each compound toward the ocular cancer cell lines Y79, RB355, WERI-Rb-1 and C918 was then assessed.
Compared potency of the cardenolide ouabain with known agents in cell models of retinoblastoma. The potency of a representative of the cardenolide scaffold was compared to known effective agents against retinoblastoma. […]

For the molecule `N.N.[Cl][Pt][Cl]` [cisplatin], the “activity toward Y79 cells below 100 μM” value in the series on Y79 cells [1] is listed as “did not demonstrate any significant activity”.

As to `C[C@@H]1O[C@@H](O[C@H]2C[C@@H](O)[C@]3(CO)[C@H]4[C@H](O)C[C@]5(C)[C@@H](C6=CC(=O)OC6)CC[C@]5(O)[C@@H]4CC[C@]3(O)C2)[C@H](O)[C@H](O)[C@H]1O` [ouabain], the “apoptosis (activated Caspase-3) compared to baseline” value in the series with Y79 cells [2] is reported as “still induced significant apoptosis”. For the same molecule, the “effect on Y79 cells in the Yo-Pro pilot study” value in the series with Y79 cells [3] is reported as “erradicated Y79 cells”. In addition, the toxicity entry in series [4] (15 mg/kg) is “did not induce any significant toxicity; also recorded: no signs of toxicity were observed”. In series [4] (1.5 and 15 mg/kg), the “average body weight of treated versus control animals” value is listed as “did not differ significantly”.

For `C=C1/C(=C\C=C2/CCC[C@]3(C)[C@@H]([C@H](C)CCCC(C)(C)O)CC[C@@H]23)C[C@@H](O)C[C@@H]1O` [calcitriol], in the series on Y79 cells [1], the “activity toward Y79 cells below 100 μM” value was “did not demonstrate any significant activity”. Further, in the series on RB355 cells, the “activity toward RB355 cells below 100 μM” value is listed as “neither caboplatin or calcitriol had any significant activity”.

For the molecule `N.N.O=C([O-])C1(C(=O)[O-])CCC1.[Pt+2]` [Carboplatin, carboplatin], in the series on Y79 cells [1], the “activity toward Y79 cells below 100 μM” value is given as “did not demonstrate any significant activity”. In addition, the “activity toward RB355 cells below 100 μM” value in the series on RB355 cells is “neither caboplatin or calcitriol had any significant activity”.
